Results as given in patent US9617286B2, “Fungicide N-[(trisubstitutedsilyl)methyl]-carboxamide derivatives” (BAYER INTELLECTUAL PROPERTY GMBH, priority 2011, dated 2017).

Columns and labels:
[1] = test system: Septoria tritici; test: In vivo preventive test on Septoria tritici (wheat); details: preventive spray, 500 ppm of active ingredient, grading 24 days after contamination
Procedure: Wheat plants (“Scipion” variety), sown in starter cups on a 50/50 peat soil pozzolana substrate and grown at 22° C., are treated at the 1 leaf stage (10 cm height) by spraying with the active ingredient prepared as described above. Plants, used as controls, are treated with the mixture of acetone/tween/DMSO/water not containing the active material. After 24 hours, the plants are contaminated by spraying the leaves with an aqueous suspension of cryopreserved Septoria tritici spores (500 000 spores per mL). The contaminated wheat plants are incubated for 72 hours at 18° C. and at 100% relative humidity, and then for 21 days at 90% relative humidity. Grading (% of efficacy) is carried out 24 days after the contamination, in comparison with the control plants.

[2] = test system: Sphaerotheca fuliginea; test: In vivo preventive test on Sphaerotheca fuliginea (powdery mildew on cucurbits); details: gherkin plants, preventive spray, 500 ppm of active ingredient, grading 12 days after contamination
Procedure: Gherkin plants (“Vert petit de Paris” variety), sown in starter cups on a 50/50 peat soil-pozzolana substrate and grown at 24° C., are treated at the Z11 cotyledon stage by spraying with the active ingredient prepared as described above. Plants, used as controls, are treated with the mixture of acetone/tween/DMSO/water not containing the active material. After 24 hours, the plants are contaminated by spraying the cotyledons with an aqueous suspension of Sphaerotheca fuliginea spores (100 000 spores per mL). The spores are collected from infected plants. The contaminated gherkin plants are incubated at about 20° C. and at 70-80% relative humidity. Grading (% of efficacy) is carried out 12 days after the contamination, in comparison with the control plants.

[3] = log P by HPLC on reversed-phase column (C 18), EEC Directive 79/831 Annex V.A8; type: physicochemical; details: 40° C., 0.1% aqueous formic acid and acetonitrile, linear gradient 10% to 90% acetonitrile
Procedure: In table 1, the log P values were determined in accordance with EEC Directive 79/831 Annex V.A8 by HPLC (High Performance Liquid Chromatography) on a reversed-phase column (C 18), using the method described below:
Temperature: 40° C.; Mobile phases: 0.1% aqueous formic acid and acetonitrile; linear gradient from 10% acetonitrile to 90% acetonitrile.
Calibration was carried out using unbranched alkan-2-ones (comprising 3 to 16 carbon atoms) with known log P values (determination of the log P values by the retention times using linear interpolation between two successive alkanones). lambda-max-values were determined using UV-spectra from 200 nm to 400 nm and the peak values of the chromatographic signals.

[4] = test system: Alternaria brassicae; test: In vivo preventive test on Alternaria brassicae (leaf spot on radish); details: preventive spray, 500 ppm of active ingredient, grading 6 days after contamination
Procedure: Radish plants (“Pernod Clair” variety), sown in starter cups on a 50/50 peat soil pozzolana substrate and grown at 17° C., are treated at the cotyledon stage by spraying with the active ingredient prepared as described above. Plants, used as controls, are treated with the mixture of acetone/tween/DMSO/water not containing the active material. After 24 hours, the plants are contaminated by spraying the cotyledons with an aqueous suspension of Alternaria brassicae spores (50 000 spores per mL). The spores are collected from a 15-day-old culture. The contaminated radish plants are incubated at 20° C. and at 100% relative humidity. Grading (% of efficacy) is carried out 6 days after the contamination, in comparison with the control plants.

[5] = test system: Pyrenophora teres; test: In vivo preventive test on Pyrenophora teres (barley); details: preventive spray (DMF/alkylaryl polyglycol ether), 500 ppm of active ingredient, evaluated 7-9 days after inoculation
Procedure: (§1) Solvent: 49 parts by weight of N,N-dimethylformamide Emulsifier: 1 part by weight of alkylaryl polyglycol ether To produce a suitable preparation of active compound, 1 part by weight of active compound is mixed with the stated amounts of solvent and emulsifier, and the concentrate is diluted with water to the desired concentration. To test for preventive activity, young plants are sprayed with the preparation of active compound at the stated rate of application. One day after this treatment, the plants are inoculated with an aqueous spore suspension of Pyrenophora teres. The plants remain for 48 hours in an incubation cabinet at 22° C. and a relative atmospheric humidity of 100%. Then the plants are placed in a greenhouse at a temperature of approximately 20° C. and a relative atmospheric humidity of approximately 80%.

[6] = test system: Puccinia recondita; test: In vivo preventive test on Puccinia recondita (brown rust on wheat); details: preventive spray, 500 ppm of active ingredient, grading 12 days after contamination
Procedure: Wheat plants (“Scipion” variety), sown in starter cups on a 50/50 peat soil pozzolana substrate and grown at 22° C., are treated at the 1 leaf stage (10 cm height) by spraying with the active ingredient prepared as described above. Plants, used as controls, are treated with the mixture of acetone/tween/DMSO/water not containing the active material. After 24 hours, the plants are contaminated by spraying the leaves with an aqueous suspension of Puccinia recondita spores (100 000 spores per mL). The spores are collected from an infected plant and are suspended in water containing 2.5 mL/L of Tween 80 at 10%. The contaminated wheat plants are incubated for 24 hours at 20° C. and at 100% relative humidity, and then for 10 days at 20° C. and at 70-80% relative humidity. Grading (% of efficacy) is carried out 12 days after the contamination, in comparison with the control plants.

[7] = test system: Botrytis cinerea; test: In vivo preventive test on Botrytis cinerea (cucumber); details: preventive spray (DMF/alkylaryl polyglycol ether), 500 ppm of active ingredient, evaluated 5-6 days after inoculation
Procedure: (§2) Solvent: 49 parts by weight of N,N-dimethylformamide Emulsifier: 1 part by weight of alkylaryl polyglycol ether To produce a suitable preparation of active compound, 1 part by weight of active compound is mixed with the stated amounts of solvent and emulsifier, and the concentrate is diluted with water to the desired concentration. To test for preventive activity, young plants are sprayed with the preparation of active compound at the stated rate of application. One day after this treatment, the plants are inoculated with an aqueous spore suspension of Botrytis cinerea. The plants remain for two days in an incubation cabinet at approximately 22° C. and a relative atmospheric humidity of 100%. Then the plants are placed in an incubation cabinet at approximately 14° C. and a relative atmospheric humidity of 96%.

[8] = test system: Leptosphaeria nodorum; test: In vivo preventive test on Leptosphaeria nodorum (wheat); details: preventive spray, 500 ppm of active ingredient, evaluated 7-9 days after inoculation
Procedure: as §1, with “sprayed with a preparation of” for “sprayed with the preparation of”, “suspension of Leptosphaeria nodorum. The plants” for “suspension of Pyrenophora teres. The plants”, “of approximately 22° C. and” for “of approximately 20° C. and”, “of approximately 90%.” for “of approximately 80%.”

[9] = test system: Alternaria solani; test: In vivo preventive test on Alternaria solani (tomato); details: preventive spray, 500 ppm of active ingredient, evaluated 7 days after inoculation
Procedure: as §2, with “Alternaria solani.” for “Botrytis cinerea.”, “one day” for “two days”, “20°” for “14°”

Compound | Efficacy [1] [%] | Efficacy [2] [%] | logP [3] | Efficacy [4] [%] | Efficacy [5] [%] | Efficacy [6] [%] | Efficacy [7] [%] | Efficacy [8] [%] | Efficacy [9] [%]
C[Si](C)(CN(C(=O)c1cccnc1C(F)F)C1CC1)c1ccccc1 [Example 5] | 80 | 89 | 3.44 | 96 | – | – | – | – | –
C[Si](C)(CN(C(=O)c1cccnc1C(F)(F)F)C1CC1)c1ccccc1 [Example 8] | 100 | – | 3.89 | 88 | 100 | – | – | – | –
Cc1ccccc1[Si](C)(C)CN(C(=O)c1nccnc1C(F)(F)F)C1CC1 [Example 10] | 79 | 78 | 4.41 | 88 | 100 | – | – | – | –
Cc1ccccc1[Si](C)(C)CN(C(=O)c1cccnc1C(F)(F)F)C1CC1 [Example 11] | – | 94 | 4.18 | 88 | 97 | 88 | – | – | –
Cc1ccccc1[Si](C)(C)CN(C(=O)c1cccnc1C(F)F)C1CC1 [Example 12] | 79 | – | 3.73 | 88 | 97 | – | – | – | –
C[Si](C)(CN(C(=O)c1cccnc1C(F)F)C1CC1)c1ccccc1F [Example 16] | 71 | – | 3.51 | 95 | 100 | – | – | – | –
CCc1ccccc1[Si](C)(C)CN(C(=O)c1cccnc1C(F)(F)F)C1CC1 [Example 20] | 93 | 100 | 4.51 | 75 | 100 | 88 | – | – | –
C[Si](C)(CN(C(=O)c1nccnc1C(F)(F)F)C1CC1)c1ccccc1Cl [Example 26] | 100 | 93 | 4.56 | – | 95 | 92 | 99 | 80 | –
C[Si](C)(CN(C(=O)c1nccnc1C(F)(F)F)C1CC1)c1cccc(Cl)c1 [Example 32] | – | – | 4.56 | – | 95 | – | 94 | 90 | 89
CC[Si](C)(CN(C(=O)c1cccnc1C(F)F)C1CC1)c1ccccc1Cl (stereo not shown) [Example 36] | 90 | 94 | 4.21 | 90 | – | 81 | – | – | –
CC[Si](C)(CN(C(=O)c1nccnc1C(F)(F)F)C1CC1)c1ccccc1Cl (stereo not shown) [Example 44] | 86 | 94 | 4.95 | 75 | 93 | 75 | – | – | –
C[Si](C)(CN(C(=O)c1cccnc1C(F)(F)F)C1CC1)c1ccc(F)cc1Cl [Example 47] | 93 | – | 4.41 | 75 | 97 | – | – | – | –
C[Si](C)(CN(C(=O)c1cccnc1C(F)(F)F)C1CC1)c1cc(F)ccc1Cl [Example 48] | 93 | 98 | 4.34 | 75 | 97 | 88 | – | – | –
C[Si](C)(CN(C(=O)c1nccnc1C(F)(F)F)C1CC1)c1cc(F)ccc1Cl [Example 49] | 100 | – | 4.59 | 75 | 97 | 88 | – | – | –
C[Si](C)(CN(C(=O)c1cccnc1Cl)C1CC1)c1cc(F)ccc1Cl [Example 50] | – | 98 | 3.99 | 75 | 97 | 75 | – | – | –
C[Si](C)(CN(C(=O)c1nccnc1C(F)(F)F)C1CC1)c1ccc(F)cc1Cl [Example 52] | 97 | 94 | 4.67 | 100 | 100 | – | – | – | –
C[Si](C)(CN(C(=O)c1cccnc1C(F)F)C1CC1)c1ccccc1C(F)(F)F [Example 56] | 100 | 83 | 3.94 | 88 | 100 | – | – | – | –
C[Si](C)(CN(C(=O)c1nccnc1C(F)(F)F)C1CC1)c1cccc2ccccc12 [Example 72] | – | – | 4.77 | – | 95 | – | – | 80 | 89
C[Si](C)(CN(C(=O)c1cccnc1C(F)F)C1CC1)c1cccc2ccccc12 [Example 74] | – | – | 4.04 | – | 95 | – | – | 70 | 78
C[Si](C)(CN(C(=O)c1nccnc1C(F)(F)F)C1CC1)c1ccsc1 [Example 86] | – | – | 3.94 | – | 90 | – | 80 | – | 75
C[Si](C)(Cc1ccccc1Cl)CN(C(=O)c1nccnc1C(F)(F)F)C1CC1 [Example 99] | – | – | 4.82 | – | 70 | – | – | 70 | –
C[Si](C)(Cc1cccc(Cl)c1)CN(C(=O)c1nccnc1C(F)(F)F)C1CC1 [Example 105] | – | – | 4.82 | – | 70 | – | 93 | – | –
